From patent publication US20240132463A1, “SUBSTITUTED N-(2-(2,6-DIOXOPIPERIDIN-3-YL)-1,3-DIOXOISOINDOLIN-5-YL)ARYLSULFONAMIDE ANALOGS AS MODULATORS OF CEREBLON PROTEIN” (ST. JUDE CHILDREN'S RESEARCH HOSPITAL, INC., priority 2020, published 2024)

Assays:
6×His-CRBN-DDB1 protein = 6×His-CRBN-DDB1 protein (Homo sapiens (Human), UniProt Q96SW2); test: CRBN fluorescence polarization assay; format: binding; details: cereblon binding, class symbols; read-out: CRBN FP IC50
Experimental: 6×His-CRBN-DDB1 protein (200 nM) and Cy5-O-Len probe (30 nM) were combined in 20 mM HEPES pH 7, 150 mM NaCl, 0.005% Tween-20 assay buffer. […] The plates were incubated in the dark for 1 hour at room temperature and then read on an Envision plate reader (PerkinElmer, Massachusetts, USA).

GSPT1 HiBiT tag protein = GSPT1 HiBiT tag protein (Homo sapiens (Human), UniProt P15170+Q96SW2); test: hGSPT1 HiBiT assay; format: cell-based; details: HEK293 hGSPT1 HiBiT cells, 4 hrs incubation; read-out: GSPT1 HiBit EC50
Sequence of GSPT1 HiBiT tag protein (P15170 whole entry): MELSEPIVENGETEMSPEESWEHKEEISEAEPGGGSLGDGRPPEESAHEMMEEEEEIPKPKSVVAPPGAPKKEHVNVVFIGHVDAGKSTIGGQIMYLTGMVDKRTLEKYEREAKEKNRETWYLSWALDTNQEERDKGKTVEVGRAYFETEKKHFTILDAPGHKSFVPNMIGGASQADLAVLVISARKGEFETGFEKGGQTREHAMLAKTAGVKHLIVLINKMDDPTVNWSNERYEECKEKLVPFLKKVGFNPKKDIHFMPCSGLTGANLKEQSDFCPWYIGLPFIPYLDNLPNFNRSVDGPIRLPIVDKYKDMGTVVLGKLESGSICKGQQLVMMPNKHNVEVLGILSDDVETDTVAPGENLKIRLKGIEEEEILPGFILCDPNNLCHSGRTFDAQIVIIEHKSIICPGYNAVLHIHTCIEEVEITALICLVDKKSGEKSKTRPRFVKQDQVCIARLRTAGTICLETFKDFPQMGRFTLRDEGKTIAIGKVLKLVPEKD
Sequence of GSPT1 HiBiT tag protein (Q96SW2 whole entry): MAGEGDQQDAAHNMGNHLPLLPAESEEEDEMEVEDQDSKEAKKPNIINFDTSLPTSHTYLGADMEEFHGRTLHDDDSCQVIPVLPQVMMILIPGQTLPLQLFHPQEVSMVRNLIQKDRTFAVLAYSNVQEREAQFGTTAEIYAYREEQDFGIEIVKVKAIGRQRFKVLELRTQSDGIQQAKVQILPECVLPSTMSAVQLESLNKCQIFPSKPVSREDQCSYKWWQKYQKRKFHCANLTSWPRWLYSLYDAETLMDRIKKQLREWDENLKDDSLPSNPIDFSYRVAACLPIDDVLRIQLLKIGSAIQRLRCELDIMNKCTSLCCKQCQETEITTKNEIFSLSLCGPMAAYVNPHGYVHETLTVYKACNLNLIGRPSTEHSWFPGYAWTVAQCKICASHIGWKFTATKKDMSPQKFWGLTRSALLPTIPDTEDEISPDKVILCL
Sequence of GSPT1 HiBiT tag protein (Q16531 whole entry partner): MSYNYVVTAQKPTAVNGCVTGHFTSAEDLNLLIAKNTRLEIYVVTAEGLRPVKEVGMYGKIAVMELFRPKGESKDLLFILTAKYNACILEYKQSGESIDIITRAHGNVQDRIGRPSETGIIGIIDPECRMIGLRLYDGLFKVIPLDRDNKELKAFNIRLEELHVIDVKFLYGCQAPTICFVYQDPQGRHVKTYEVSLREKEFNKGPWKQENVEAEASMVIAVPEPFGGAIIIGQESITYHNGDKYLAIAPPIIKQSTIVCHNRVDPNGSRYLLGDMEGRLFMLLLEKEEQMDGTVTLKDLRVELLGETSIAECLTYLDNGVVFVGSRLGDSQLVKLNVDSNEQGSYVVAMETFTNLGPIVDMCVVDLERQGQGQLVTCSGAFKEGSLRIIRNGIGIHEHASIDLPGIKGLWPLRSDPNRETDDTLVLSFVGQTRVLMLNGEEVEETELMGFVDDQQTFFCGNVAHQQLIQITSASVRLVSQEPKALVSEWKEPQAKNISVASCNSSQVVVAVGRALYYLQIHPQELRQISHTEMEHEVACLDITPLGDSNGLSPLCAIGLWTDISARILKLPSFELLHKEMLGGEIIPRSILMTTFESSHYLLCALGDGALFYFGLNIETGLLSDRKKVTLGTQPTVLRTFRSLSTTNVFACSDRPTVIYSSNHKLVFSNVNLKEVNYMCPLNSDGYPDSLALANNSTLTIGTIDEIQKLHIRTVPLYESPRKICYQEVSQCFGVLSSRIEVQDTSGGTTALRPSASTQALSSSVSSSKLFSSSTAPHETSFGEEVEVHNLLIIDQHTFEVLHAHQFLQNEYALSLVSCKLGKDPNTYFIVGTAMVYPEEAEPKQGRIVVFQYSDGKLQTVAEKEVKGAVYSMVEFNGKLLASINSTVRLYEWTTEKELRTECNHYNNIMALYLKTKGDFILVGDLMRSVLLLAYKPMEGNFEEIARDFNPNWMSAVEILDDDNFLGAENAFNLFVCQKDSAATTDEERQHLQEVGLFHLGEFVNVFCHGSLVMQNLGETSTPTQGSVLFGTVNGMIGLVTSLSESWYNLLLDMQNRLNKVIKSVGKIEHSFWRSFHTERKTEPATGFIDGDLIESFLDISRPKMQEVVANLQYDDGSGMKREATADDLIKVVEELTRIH
Experimental: hGSPT1 HiBiT cell line. HEK293_hGSPT1_HiBiT tagged cells were generated using CRISPR-Cas12a technology. Briefly, ˜400,000 HEK293 cells were transiently co-transfecting with precomplexed ribonuclear proteins (RNPs) consisting of […] of crRNA (IDT), 62 pmol of Cas12a protein (IDT), 3 ug of ssODN donor (IDT; AltR™ modifications), 78 pmol of electroporation enhancer (IDT), and 200 ng of pMaxGFP (Lonza). The transfection was performed via nucleofection (Lonza, 4D-Nucleofector™ X-unit) using solution P3 and program CM-130 in a small (20 ul) cuvette according to the manufacturer's recommended protocol. Five days post-nucleofection, cells were single cell sorted for GFP+(transfected) cells by FACs in 96-well plates and clonally selected. Clones were screened and verified for the desired modification via targeted deep sequencing using gene specific primers with partial Illumina adapter overhangs as previously described.^58 In brief, clonal cell pellets were harvested, lysed and used to generate gene specific amplicons with partial Illumina adapters in PCR #1. Amplicons were indexed in PCR #2 and pooled with other targeted amplicons for other loci to create sequence diversity. Additionally, 10% PhiX Sequencing Control V3 (Illumina) was added to the pooled amplicon library prior to running the sample on an Miseq Sequencer System (Illumina) to generate paired 2×250 bp reads. […] Editing construct sequences and screening primers are listed below in Table 4.
hGSPT1 HiBiT assay. […] After 4 hrs incubation, the level of GSPT1 HiBiT tag protein was evaluated using Nano-Glo® HiBiT Lytic Detection System (Promega) according to the manufacturer's instruction.

Sequence of 6×His-CRBN-DDB1 protein (Q96SW2 whole entry): as the sequence (Q96SW2 whole entry) above
Sequence of 6×His-CRBN-DDB1 protein (Q16531 whole entry partner): as the sequence (Q16531 whole entry partner) above

`O=C1CCC(N2C(=O)c3ccc(NS(=O)(=O)c4cccs4)cc3C2=O)C(=O)N1` (stereo not shown) [Compound 18, N-(2-(2,6-dioxopiperidin-3-yl)-1,3-dioxoisoindolin-5-yl)thiophene-2-sulfonamide] was tested, and the IC50 (6×His-CRBN-DDB1 protein) was under 1 µM and the DC50 (GSPT1 HiBiT tag protein) was over 10 µM.
`O=C1CCC(N2C(=O)c3ccc(NS(=O)(=O)c4ccc(Cl)c(C(F)(F)F)c4)cc3C2=O)C(=O)N1` (stereo not shown) [Compound 70, 4-chloro-N-(2-(2,6-dioxopiperidin-3-yl)-1,3-dioxoisoindolin-5-yl)-3-(trifluoromethyl)benzenesulfonamide] gave a DC50 (GSPT1 HiBiT tag protein) of over 10 µM.
`O=C1CCC(N2C(=O)c3ccc(NS(=O)(=O)c4cccc(C(F)(F)F)c4)cc3C2=O)C(=O)N1` (stereo not shown) [Compound 4, N-(2-(2,6-dioxopiperidin-3-yl)-1,3-dioxoisoindolin-5-yl)-3-(trifluoromethyl)benzenesulfonamide] gave an IC50 (6×His-CRBN-DDB1 protein) of under 1 µM and a DC50 (GSPT1 HiBiT tag protein) of over 10 µM.
For `O=C1CCC(N2C(=O)c3ccc(NS(=O)(=O)Cc4ccccc4)cc3C2=O)C(=O)N1` (stereo not shown) [Compound 9, N-(2-(2,6-dioxopiperidin-3-yl)-1,3-dioxoisoindolin-5-yl)-1-phenylmethanesulfonamide], the IC50 (6×His-CRBN-DDB1 protein) was 1 to 10 µM and the DC50 (GSPT1 HiBiT tag protein) was over 10 µM.
`O=C1CCC(N2C(=O)c3ccc(NS(=O)(=O)c4ccc(Cl)c(Cl)c4)cc3C2=O)C(=O)N1` (stereo not shown) [Compound 71, 3,4-dichloro-N-(2-(2,6-dioxopiperidin-3-yl)-1,3-dioxoisoindolin-5-yl)benzenesulfonamide] gave an IC50 (6×His-CRBN-DDB1 protein) of under 1 µM and a DC50 (GSPT1 HiBiT tag protein) of over 10 µM.
In the case of `COc1ccccc1S(=O)(=O)Nc1ccc2c(c1)C(=O)N(C1CCC(=O)NC1=O)C2=O` (stereo not shown) [Compound 100, N-(2-(2,6-dioxopiperidin-3-yl)-1,3-dioxoisoindolin-5-yl)-2-methoxybenzenesulfonamide], the IC50 (6×His-CRBN-DDB1 protein) is reported as under 1 µM and the DC50 (GSPT1 HiBiT tag protein) is reported as over 10 µM.
With `Cc1ccccc1CS(=O)(=O)Nc1ccc2c(c1)C(=O)N(C1CCC(=O)NC1=O)C2=O` (stereo not shown) [Compound 90, N-(2-(2,6-dioxopiperidin-3-yl)-1,3-dioxoisoindolin-5-yl)-1-(o-tolyt)methanesulfonamide] the IC50 (6×His-CRBN-DDB1 protein) was 1 to 10 µM and the DC50 (GSPT1 HiBiT tag protein) was over 10 µM.
`O=C1CCC(N2C(=O)c3ccc(NS(=O)(=O)Cc4ccc(F)cc4)cc3C2=O)C(=O)N1` (stereo not shown) [Compound 89, N-(2-(2,6-dioxopiperidin-3-yl)-1,3-dioxoisoindolin-5-yl)-1-(4-fluorophenyl)methanesulfonamide] showed an IC50 (6×His-CRBN-DDB1 protein) of under 1 µM and a DC50 (GSPT1 HiBiT tag protein) of over 10 µM.
In the case of `Cc1cc(S(=O)(=O)Nc2ccc3c(c2)C(=O)N(C2CCC(=O)NC2=O)C3=O)c(C)cc1Cl` (stereo not shown) [Compound 77, 4-chloro-N-(2-(2,6-dioxopiperidin-3-yl)-1,3-dioxoisoindolin-5-yl)-2,5-dimethylbenzenesulfonamide], the IC50 (6×His-CRBN-DDB1 protein) is reported as under 1 µM and the DC50 (GSPT1 HiBiT tag protein) is reported as under 1 µM.
`O=C1CCC(N2C(=O)c3ccc(NS(=O)(=O)c4ccc(C(F)(F)F)cc4)cc3C2=O)C(=O)N1` (stereo not shown) [Compound 8, N-(2-(2,6-dioxopiperidin-3-yl)-1,3-dioxoisoindolin-5-yl)-4-(trifluoromethyl)benzenesulfonamide] was tested, and the DC50 (GSPT1 HiBiT tag protein) was over 10 µM.
Work on `O=C1CCC(N2C(=O)c3ccc(NS(=O)(=O)c4ccccc4Br)cc3C2=O)C(=O)N1` (stereo not shown) [Compound 98, 2-bromo-N-(2-(2,6-dioxopiperidin-3-yl)-1,3-dioxoisoindolin-5-yl)benzenesulfonamide] yielded an IC50 (6×His-CRBN-DDB1 protein) of under 1 µM and a DC50 (GSPT1 HiBiT tag protein) of under 1 µM.
In the case of `O=C1CCC(N2C(=O)c3ccc(NS(=O)(=O)c4ccccc4C(F)(F)F)cc3C2=O)C(=O)N1` (stereo not shown) [Compound 99, N-(2-(2,6-dioxopiperidin-3-yl)-1,3-dioxoisoindolin-5-yl)-2-(trifluoromethyl)benzenesulfonamide], the IC50 (6×His-CRBN-DDB1 protein) is reported as under 1 µM and the DC50 (GSPT1 HiBiT tag protein) is reported as under 1 µM.
For `O=C1CCC(N2C(=O)c3ccc(NS(=O)(=O)c4ccc(Cl)cc4)cc3C2=O)C(=O)N1` (stereo not shown) [Compound 16, 4-chloro-N-(2-(2,6-dioxopiperidin-3-yl)-1,3-dioxoisoindolin-5-yl)benzenesulfonamide], the IC50 (6×His-CRBN-DDB1 protein) was under 1 µM and the DC50 (GSPT1 HiBiT tag protein) was over 10 µM.
Work on `O=C1CCC(N2C(=O)c3ccc(NS(=O)(=O)c4ccc(F)c(Cl)c4)cc3C2=O)C(=O)N1` (stereo not shown) [Compound 17, 3-chloro-N-(2-(2,6-dioxopiperidin-3-yl)-1,3-dioxoisoindolin-5-yl)-4-fluorobenzenesulfonamide] yielded an IC50 (6×His-CRBN-DDB1 protein) of under 1 µM and a DC50 (GSPT1 HiBiT tag protein) of over 10 µM.
`O=C1CCC(N2C(=O)c3ccc(NS(=O)(=O)c4ccccc4-c4ccccc4)cc3C2=O)C(=O)N1` (stereo not shown) [Compound 81, N-(2-(2,6-dioxopiperidin-3-yl)-1,3-dioxoisoindolin-5-yl)-[1,1′-biphenyl]-2-sulfonamide] showed an IC50 (6×His-CRBN-DDB1 protein) of under 1 µM and a DC50 (GSPT1 HiBiT tag protein) of over 10 µM.
`O=C1CCC(N2C(=O)c3ccc(NS(=O)(=O)c4cccc(F)c4)cc3C2=O)C(=O)N1` (stereo not shown) [Compound 72, N-(2-(2,6-dioxopiperidin-3-yl)-1,3-dioxoisoindolin-5-yl)-3-fluorobenzenesulfonamide] gave an IC50 (6×His-CRBN-DDB1 protein) of under 1 µM and a DC50 (GSPT1 HiBiT tag protein) of over 10 µM.
With `Cc1ccc(F)c(S(=O)(=O)Nc2ccc3c(c2)C(=O)N(C2CCC(=O)NC2=O)C3=O)c1` (stereo not shown) [Compound 10, N-(2-(2,6-dioxopiperidin-3-yl)-1,3-dioxoisoindolin-5-yl)-2-fluoro-5-methylbenzenesulfonamide] the IC50 (6×His-CRBN-DDB1 protein) was under 1 µM and the DC50 (GSPT1 HiBiT tag protein) was over 10 µM.
In the case of `O=C1CCC(N2C(=O)c3ccc(NS(=O)(=O)c4cccc(Cl)c4)cc3C2=O)C(=O)N1` (stereo not shown) [Compound 95, 3-chloro-N-(2-(2,6-dioxopiperidin-3-yl)-1,3-dioxoisoindolin-5-yl)benzenesulfonamide], the IC50 (6×His-CRBN-DDB1 protein) is reported as under 1 µM and the DC50 (GSPT1 HiBiT tag protein) is reported as over 10 µM.
`O=C1CCC(N2C(=O)c3ccc(NS(=O)(=O)c4ccsc4)cc3C2=O)C(=O)N1` (stereo not shown) [Compound 83, N-(2-(2,6-dioxopiperidin-3-yl)-1,3-dioxoisoindolin-5-yl)thiophene-3-sulfonamide] was tested, and the IC50 (6×His-CRBN-DDB1 protein) was under 1 µM and the DC50 (GSPT1 HiBiT tag protein) was over 10 µM.
For `Cc1ccc(S(=O)(=O)Nc2ccc3c(c2)C(=O)N(C2CCC(=O)NC2=O)C3=O)cc1` (stereo not shown) [Compound 21, N-(2-(2,6-dioxopiperidin-3-yl)-1,3-dioxoisoindolin-5-yl)-4-methylbenzenesulfonamide], the IC50 (6×His-CRBN-DDB1 protein) was 1 to 10 µM and the DC50 (GSPT1 HiBiT tag protein) was over 10 µM.
Work on `O=C1CCC(N2C(=O)c3ccc(NS(=O)(=O)c4cc5ccccc5s4)cc3C2=O)C(=O)N1` (stereo not shown) [Compound 87, N-(2-(2,6-dioxopiperidin-3-yl)-1,3-dioxoisoindolin-5-yl)benzo[b]thiophene-2-sulfonamide] yielded an IC50 (6×His-CRBN-DDB1 protein) of under 1 µM and a DC50 (GSPT1 HiBiT tag protein) of over 10 µM.
In the case of `O=C1CCC(N2C(=O)c3ccc(NS(=O)(=O)c4ccc5ccccc5c4)cc3C2=O)C(=O)N1` (stereo not shown) [Compound 63, N-(2-(2,6-dioxopiperidin-3-yl)-1,3-dioxoisoindolin-5-yl)naphthalene-2-sulfonamide], the IC50 (6×His-CRBN-DDB1 protein) is reported as under 1 µM and the DC50 (GSPT1 HiBiT tag protein) is reported as over 10 µM.
For `O=C1CCC(N2C(=O)c3ccc(NS(=O)(=O)c4ccc(F)c(F)c4)cc3C2=O)C(=O)N1` (stereo not shown) [Compound 76], the IC50 (6×His-CRBN-DDB1 protein) was 1 to 10 µM and the DC50 (GSPT1 HiBiT tag protein) was over 10 µM.
`O=C1CCC(N2C(=O)c3ccc(NS(=O)(=O)c4ccc(F)cc4)cc3C2=O)C(=O)N1` (stereo not shown) [Compound 12, N-(2-(2,6-dioxopiperidin-3-yl)-1,3-dioxoisoindolin-5-yl)-4-fluorobenzenesulfonamide] showed an IC50 (6×His-CRBN-DDB1 protein) of under 1 µM and a DC50 (GSPT1 HiBiT tag protein) of over 10 µM.
In the case of `O=C1CCC(N2C(=O)c3ccc(NS(=O)(=O)c4ccc(OC(F)(F)F)cc4)cc3C2=O)C(=O)N1` (stereo not shown) [Compound 96], the IC50 (6×His-CRBN-DDB1 protein) is reported as under 1 µM and the DC50 (GSPT1 HiBiT tag protein) is reported as over 10 µM.
In the case of `Cc1ccccc1S(=O)(=O)Nc1ccc2c(c1)C(=O)N(C1CCC(=O)NC1=O)C2=O` (stereo not shown) [Compound 15, N-(2-(2,6-dioxopiperidin-3-yl)-1,3-dioxoisoindolin-5-yl)-2-methylbenzenesulfonamide], the IC50 (6×His-CRBN-DDB1 protein) is reported as under 1 µM and the DC50 (GSPT1 HiBiT tag protein) is reported as 1 to 10 µM.
For `COc1ccc(Br)cc1S(=O)(=O)Nc1ccc2c(c1)C(=O)N(C1CCC(=O)NC1=O)C2=O` (stereo not shown) [Compound 78, 5-bromo-N-(2-(2,6-dioxopiperidin-3-yl)-1,3-dioxoisoindolin-5-yl)-2-methoxybenzenesulfonamide], the IC50 (6×His-CRBN-DDB1 protein) was 1 to 10 µM and the DC50 (GSPT1 HiBiT tag protein) was over 10 µM.
`O=C1CCC(N2C(=O)c3ccc(NS(=O)(=O)c4ccc(O)cc4)cc3C2=O)C(=O)N1` (stereo not shown) [Compound 92, N-(2-(2,6-dioxopiperidin-3-yl)-1,3-dioxoisoindolin-5-yl)-4-hydroxybenzenesulfonamide] was tested, and the IC50 (6×His-CRBN-DDB1 protein) was 1 to 10 µM and the DC50 (GSPT1 HiBiT tag protein) was over 10 µM.
For `Cc1ccc(F)cc1S(=O)(=O)Nc1ccc2c(c1)C(=O)N(C1CCC(=O)NC1=O)C2=O` (stereo not shown) [Compound 75, N-(2-(2,6-dioxopiperidin-3-yl)-1,3-dioxoisoindolin-5-yl)-5-fluoro-2-methylbenzenesulfonamide], the IC50 (6×His-CRBN-DDB1 protein) was under 1 µM and the DC50 (GSPT1 HiBiT tag protein) was over 10 µM.
`O=C1CCC(N2C(=O)c3ccc(NS(=O)(=O)c4ccccc4F)cc3C2=O)C(=O)N1` (stereo not shown) [Compound 82, N-(2-(2,6-dioxopiperidin-3-yl)-1,3-dioxoisoindolin-5-yl)-2-fluorobenzenesulfonamide] gave an IC50 (6×His-CRBN-DDB1 protein) of under 1 µM and a DC50 (GSPT1 HiBiT tag protein) of over 10 µM.
